In patent US20160135455A1, “SAFENED HERBICIDAL COMPOSITIONS COMPRISING PYRIDINE CARBOXYLIC ACIDS” (Dow AgroSciences LLC, priority 2014, published 2016):
Like-named read-outs stand apart in the source and are kept apart here.

Experiments:
Assay type in all cases: in vivo
[1] = test system: sorghum (SORVU, Sorghum bicolor); assay: Postemergence greenhouse trial, herbicidal efficacy on sorghum; settings: applied alone at 35 g/ha; for % visual injury, Obs, SORVU: rated after 20-22 d; for Obs, % visual injury, SORVU: scored 20-22 d
Experimental: (§1) Seeds of the desired test plant species were planted in Sun Gro MetroMix® 306 planting mixture, which typically has a pH of 6.0 to 6.8 and an organic matter content of about 30 percent, in plastic pots with a surface area of 103.2 square centimeters (cm^2). When required to ensure good germination and healthy plants, a fungicide treatment and/or other chemical or physical treatment was applied. The plants were grown for 7-36 days (d) in a greenhouse with an approximate 14-hour (h) photoperiod which was maintained at about 23° C. during the day and 22° C. during the night. Nutrients and water were added on a regular basis and supplemental lighting was provided with overhead metal halide 1000-Watt lamps as necessary. The plants were employed for testing when they reached the second or third true leaf stage.
(§2) Weighed amounts of technical material were dissolved in a volume of 97:3 volume per volume (v/v) acetone/dimethyl sulfoxide (DMSO) to stock solutions. […] The concentrated stock solutions were diluted with an aqueous mixture of 1.5% v/v of Agri-dex crop oil concentrate to provide the appropriate application rates. Compound requirements are based upon a 12 milliliter (mL) application volume at a rate of 187 liters per hectare (L/ha). Stocks solutions of the safeners were prepared following the same procedure. Spray solutions of the safeners and experimental compound mixtures were prepared by adding the stock solutions to the appropriate amount of dilution solution to form a 12 mL spray solution in two-way combinations. Formulated compounds were applied to the plant material with an overhead Mandel track sprayer equipped with 8002E nozzles calibrated to deliver 187 L/ha over an application area of 0.503 square meters (m^2) at a spray height of 18 inches (43 centimeters (cm)) above average plant canopy. Control plants were sprayed in the same manner with the solvent blank. All herbicide application (component a) rates are in g ae/ha and all safener (component b) rates are in g ai/ha.
(§3) The treated plants and control plants were placed in a greenhouse as described above and watered by sub-irrigation to prevent wash-off of the test compounds. After 20-22 d, the condition of the test plants as compared with that of the control plants was determined visually and scored on a scale of 0 to 100 percent where 0 corresponds to no injury and 100 corresponds to complete kill. The condition of the test plants was compared with that of the control plants as determined visually and scored on a scale of 0 to 100 percent, where 0 corresponds to no injury and 100 corresponds to complete kill. Colby's equation was used to determine the herbicidal effects expected from the mixtures.

[2] = test system: poinsettia (EPHHL, Euphorbia heterophylla); assay: Postemergence greenhouse trial, herbicidal efficacy on poinsettia; settings: for pest or weed control at 35 g/ha: Euphorbia heterophylla, post-emergence, 528 h, read-out: % visual injury, Obs, EPHHL
Experimental: as §1, §2, §3

[3] = test system: winter rape (BRSNW, Brassica napus); assay: Postemergence greenhouse trial, herbicidal efficacy on winter rape; settings: post-emergence, 528 h
Experimental: as §1, §2, §3

[4] = test system: pigweed (AMARE, Amaranthus retroflexus); assay: Postemergence greenhouse trial, herbicidal efficacy on pigweed; settings: post-emergence, 528 h
Experimental: as §1, §2, §3

[5] = test system: chickweed (STEME, Stellaria media); assay: Postemergence greenhouse trial, herbicidal efficacy on chickweed; settings: post-emergence, 528 h
Experimental: as §1, §2, §3

[6] = test system: nutsedge (CYPES, Cyperus esculentus); assay: Postemergence greenhouse trial, herbicidal efficacy on nutsedge; settings: applied alone at 35 g/ha; for % visual injury, Obs, CYPES: rated after 20-22 d
Experimental: as §1, §2, §3

[7] = test system: wild buckwheat (POLCO, Polygonum convolvulus); assay: Postemergence greenhouse trial, herbicidal efficacy on wild buckwheat; settings: Fallopia convolvulus, post-emergence, 528 h
Experimental: as §1, §2, §3

[8] = test system: lambsquarters (CHEAL, Chenopodium album); assay: Postemergence greenhouse trial, herbicidal efficacy on lambsquarters; settings: post-emergence, 528 h
Experimental: as §1, §2, §3

[9] = test system: corn/maize (ZEAMX), Zea mays; assay: Postemergence greenhouse trial, crop injury (phytotoxicity/safening) on corn/maize; settings: applied alone at 35 g/ha, rated after 20-22 d
Experimental: as §1
as §2, with “All herbicide application (component a) rates are in g ae/ha and all safener (component b) rates are in g ai/ha.” left out
as §3, with “Colby's equation was used to determine the herbicidal effects expected from the mixtures.” left out
The safener fenchlorazole-ethyl was combined with compound 1, compound 2, compound 5, and compound 6, and applied to corn/maize (ZEAMX) and the phytotoxicity of the herbicidal compositions was measured. In addition, the efficacy of the herbicidal composition on velvetleaf (ABUTH, Abutilon theophrasti), pigweed (AMARE, Amaranthus retroflexus), winter rape (BRSNW, Brassica napus), lambsquarters (CHEAL, Chenopodium album), thistle (CIRAR, Cirsium arvense), nutsedge (CYPES, Cyperus esculentus), poinsettia (EPHHL, Euphorbia heterophylla), wild buckwheat (POLCO, Polygonum convolvulus), giant foxtail (SETFA, Setaria faberi), sorghum (SORVU, Sorghum bicolor), and chickweed (STEME, Stellaria media) was evaluated.
The safener mefenpyr-diethyl was combined with compound 1, compound 2, and compound 5, and applied to corn/maize (ZEAMX) and the phytotoxicity of the herbicidal compositions were measured. […]

[10] = test system: thistle (CIRAR, Cirsium arvense); assay: Postemergence greenhouse trial, herbicidal efficacy on thistle; settings: post-emergence, 528 h
Experimental: as §1, §2, §3

[11] = test system: wheat (TRZAS), Triticum aestivum (spring wheat); assay: Postemergence greenhouse trial, crop injury (phytotoxicity/safening) on wheat; settings: applied alone at 35 g/ha, scored 20-22 d, 0 = no injury, 100 = complete kill
Experimental: as §1, §2, §3
The safener fenchlorazole-ethyl was combined with compound 1, compound 2, compound 3, compound 4, compound 5, and compound 6, and applied to wheat (TRZAS), and the phytotoxicity of the herbicidal compositions was measured. In addition, the efficacy of the herbicidal composition on velvetleaf (ABUTH, Abutilon theophrasti), pigweed (AMARE, Amaranthus retroflexus), winter rape (BRSNW, Brassica napus), lambsquarters (CHEAL, Chenopodium album), thistle (CIRAR, Cirsium arvense), nutsedge (CYPES, Cyperus esculentus), poinsettia (EPHHL, Euphorbia heterophylla), wild buckwheat (POLCO, Polygonum convolvulus), giant foxtail (SETFA, Setaria faberi), sorghum (SORVU, Sorghum bicolor), chickweed (STEME, Stellaria media), and wild pansy (VIOTR, Viola tricolor) was evaluated.
The safener isoxadifen-ethyl was combined with compound 1, compound 2, compound 3, compound 4, compound 5, and compound 6, and applied to wheat (TRZAS), and the phytotoxicity of the herbicidal compositions was measured. […]

[12] = test system: wild pansy (VIOTR, Viola tricolor); assay: Postemergence greenhouse trial, herbicidal efficacy on wild pansy; settings: for pest or weed control at 35 g/ha: Viola tricolor, post-emergence, 528 h, read-out: Obs, % visual injury, VIOTR; for % visual injury, Obs, VIOTR: rated after 20-22 d
Experimental: as §1, §2, §3

[13] = test system: velvetleaf (ABUTH, Abutilon theophrasti); assay: Postemergence greenhouse trial, herbicidal efficacy on velvetleaf; settings: post-emergence, 528 h
Experimental: as §1, §2, §3

[14] = applied alone at 35 g/ha, postemergence, rated after 20-22 d
[15] = applied alone at 35 g/ha, postemergence, scored 20-22 d
[16] = applied alone at 35 g/ha, postemergence, rated after 20-22 d, read-out: % visual injury, Obs, BRSNW
[17] = applied alone at 35 g/ha, postemergence, scored 20-22 d, read-out: Obs, % visual injury, BRSNW
[18] = applied alone at 35 g/ha, postemergence, rated after 20-22 d, read-out: % visual injury, Obs, AMARE
[19] = applied alone at 35 g/ha, postemergence, scored 20-22 d, read-out: Obs, % visual injury, AMARE
[20] = applied alone at 35 g/ha, postemergence, rated after 20-22 d, read-out: % visual injury, Obs, STEME
[21] = applied alone at 35 g/ha, postemergence, scored 20-22 d, read-out: Obs, % visual injury, STEME
[22] = applied alone at 35 g/ha, postemergence, rated after 20-22 d, read-out: % visual injury, Obs, POLCO
[23] = applied alone at 35 g/ha, postemergence, rated after 20-22 d, read-out: % visual injury, Obs, CHEAL
[24] = applied alone at 35 g/ha, postemergence, scored 20-22 d, read-out: Obs, % visual injury, CHEAL
[25] = applied alone at 35 g/ha, postemergence, rated after 20-22 d, read-out: % visual injury, Obs, CIRAR
[26] = applied alone at 35 g/ha, postemergence, scored 20-22 d, read-out: Obs, % visual injury, CIRAR
[27] = applied alone at 35 g/ha, postemergence, rated after 20-22 d, read-out: % visual injury, Obs, ABUTH
[28] = applied alone at 35 g/ha, postemergence, scored 20-22 d, read-out: Obs, % visual injury, ABUTH
[29] = applied alone at 35 g/ha, postemergence

Row | Structure (SMILES) | % visual injury, Obs, SORVU [1] [%] | pest or weed control at 35 g/ha [2, 14] [%] | plant injury at 35 g/ha [3, 16] [%] | plant injury at 35 g/ha [3, 17] [%] | pest or weed control at 35 g/ha [4, 18] [%] | pest or weed control at 35 g/ha [4, 19] [%] | pest or weed control at 35 g/ha [5, 20] [%] | pest or weed control at 35 g/ha [5, 21] [%] | % visual injury, Obs, CYPES [6] [%] | pest or weed control at 35 g/ha [7, 22] [%] | pest or weed control at 35 g/ha [8, 23] [%] | pest or weed control at 35 g/ha [8, 24] [%] | % visual injury, Obs, ZEAMX [9] [%] | pest or weed control at 35 g/ha [10, 25] [%] | pest or weed control at 35 g/ha [10, 26] [%] | Obs, % visual injury, TRZAS [11] [%] | pest or weed control at 35 g/ha [12, 15] [%] | pest or weed control at 35 g/ha [13, 27] [%] | pest or weed control at 35 g/ha [13, 28] [%] | Obs, % visual injury, SORVU [1] [%] | also measured
1 | COC(=O)c1nc(-c2ccc3ccn(C(=O)C(C)C)c3c2F)c(F)c(N)c1Cl [compound 4] | 80 | 100 | 97 | 97 | 100 | 100 | 93 | 93 | 0 | 100 | 97 | 97 | 35 | 75 | 75 | 40 | 60 | 80 | 80 | – | Obs, % visual injury, EPHHL [2, 15]: 100%; Obs, % visual injury, CYPES ([6]; scored 20-22 d): 0%; pest or weed control at 35 g/ha ([7]; applied alone at 35 g/ha, postemergence, scored 20-22 d, read-out: Obs, % visual injury, POLCO): 100%
2 | COC(=O)c1nc(-c2ccc3ccn(C(=O)C(C)(C)C)c3c2F)c(F)c(N)c1Cl [compound 5] | 60 | 100 | 97 | 97 | 100 | 100 | 85 | 85 | 0 | 100 | 100 | 100 | 35 | 80 | 80 | 45 | 40 | 80 | 80 | 60 | % visual injury, Obs, VIOTR [12, 29]: 40%
3 | CCOC(=O)C1=NN(c2ccc(Cl)cc2Cl)C(C)(C(=O)OCC)C1 (centres unmarked) [mefenpyr-diethyl, reference compound] | 0 | – | – | – | – | – | – | – | 0 | – | – | – | 0 | – | – | 0 | – | – | – | 0 | pest or weed control at 35 g/ha [2]: 0%; plant injury at 35 g/ha ([3]; read-out: % visual injury, Obs, BRSNW): 0%; plant injury at 35 g/ha ([3]; read-out: Obs, % visual injury, BRSNW): 0%; pest or weed control at 35 g/ha ([4]; read-out: % visual injury, Obs, AMARE): 0%; pest or weed control at 35 g/ha ([4]; read-out: Obs, % visual injury, AMARE): 0%; pest or weed control at 35 g/ha ([5]; read-out: % visual injury, Obs, STEME): 0%; pest or weed control at 35 g/ha ([5]; read-out: Obs, % visual injury, STEME): 0%; pest or weed control at 35 g/ha ([7]; read-out: % visual injury, Obs, POLCO): 0%; pest or weed control at 35 g/ha ([7]; read-out: Obs, % visual injury, POLCO): 0%; pest or weed control at 35 g/ha ([8]; read-out: % visual injury, Obs, CHEAL): 0%; pest or weed control at 35 g/ha ([8]; read-out: Obs, % visual injury, CHEAL): 0%; pest or weed control at 35 g/ha ([10]; read-out: % visual injury, Obs, CIRAR): 0%; pest or weed control at 35 g/ha ([10]; read-out: Obs, % visual injury, CIRAR): 0%; pest or weed control at 35 g/ha [12]: 0%; % visual injury, Obs, VIOTR [12, 29]: 0%; pest or weed control at 35 g/ha ([13]; read-out: % visual injury, Obs, ABUTH): 0%; pest or weed control at 35 g/ha ([13]; read-out: Obs, % visual injury, ABUTH): 0%
